From paper PMC6274048, “Chemical Constituents of Malaysian U. cordata var. ferruginea and Their in Vitro α-Glucosidase Inhibitory Activities” (Molecules, 2016)
Read-outs that look alike come from different tables or passages of the source.

Molecular target: α-glucosidase enzyme (type 1 from Baker's yeast) (Saccharomyces cerevisiae, UniProt P53341)
Test: α-Glucosidase inhibitory assay (p-nitrophenyl-α-D-glucopyranoside substrate, absorbance at 405 nm)
Type: biochemical
Settings: for inhibition at 1000 µg/mL: Concentration: 1 mg/mL, Means ± SD, n = 3; for IC50: α-glucosidase inhibition
Method: The method of α-glucosidase inhibitory assay was adopted from Ahmad et al. with minor modification. The plant samples (extract/fraction/compound) were prepared in 5% DMSO at a concentration of 1000 μg/mL. A series of dilutions for each sample were prepared to give concentrations of 1000, 500, 250, 125, 62.5 and 31.25 μg/mL. Then, about 10 μL of sample, 20 μL of α-glucosidase enzyme solution (type 1 from Baker’s yeast), phosphate buffer saline (40 μL at pH 6.5) and deionized water (20 μL) were mixed in a 96-well plate. The mixture was incubated at 37 °C. After 10 min, 10 μL of 20 mM p-nitrophenyl-α-D-glucopyranoside solution was added into the mixture and absorbance at time 0 min was measured by the spectrophotometer (λ = 405 nm). Then, the reaction mixture was incubated at 37 °C for 30 min and the absorbance was measured. […] Experiments were performed in triplicates with three independent experiments. The percentage inhibitory activity was calculated using the following equation: (1) Inhibition (%)=(A30 min–A0 min) control – (A30 min – A0 min) sample × 100/(A30 min–A0 min) control where A is the absorbance of mixture measured at 405 nm.

α-glucosidase enzyme (type 1 from Baker's yeast), sequence (P53341 whole entry): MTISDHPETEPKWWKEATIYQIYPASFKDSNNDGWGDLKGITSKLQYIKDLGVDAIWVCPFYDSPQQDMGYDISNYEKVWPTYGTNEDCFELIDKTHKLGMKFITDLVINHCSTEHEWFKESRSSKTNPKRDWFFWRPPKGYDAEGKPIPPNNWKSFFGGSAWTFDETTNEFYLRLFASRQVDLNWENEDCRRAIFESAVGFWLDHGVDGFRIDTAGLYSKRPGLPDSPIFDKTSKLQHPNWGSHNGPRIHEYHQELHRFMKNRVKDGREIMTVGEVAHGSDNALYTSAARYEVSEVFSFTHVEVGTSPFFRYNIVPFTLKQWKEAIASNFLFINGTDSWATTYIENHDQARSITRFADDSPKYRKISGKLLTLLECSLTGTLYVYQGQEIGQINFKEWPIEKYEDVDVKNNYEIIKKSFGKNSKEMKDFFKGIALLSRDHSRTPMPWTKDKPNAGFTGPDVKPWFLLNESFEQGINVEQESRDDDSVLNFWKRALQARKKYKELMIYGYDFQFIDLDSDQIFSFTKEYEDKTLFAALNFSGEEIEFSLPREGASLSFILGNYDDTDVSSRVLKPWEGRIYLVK

## O=C(O)c1ccc(O)cc1O [2,4-DHBA, 2,4-Dihydroxybenzoic acid]
  inhibition at 1000 µg/mL: 78.8 ± 0.4%
Dilution series 1000-31.25 μg/mL, read-out: IC50 (μg/mL) (converted)
  IC50: 3.56 mM
Same IC50 in molar units, read-out: IC50
  IC50: 3.56 mM

## C[C@H]1O[C@H](O[C@H]2[C@H](O)[C@@H](O)[C@@H](O[C@H]3[C@H](O)[C@@H](O)C(O)O[C@@H]3CO)O[C@@H]2CO)[C@H](O)[C@@H](O)[C@@H]1N[C@H]1C=C(CO)[C@@H](O)[C@H](O)[C@H]1O (stereo partly shown) [Acarbose, reference compound]
  inhibition at 1000 µg/mL: 90.9 ± 2.7%

## COC(=O)C1=CO[C@@H](O[C@@H]2O[C@H](CO)[C@@H](O)[C@H](O)[C@H]2O)[C@@H]2[C@@H](C)[C@@H](O)C[C@H]12 [Loganin]
  inhibition at 1000 µg/mL: 44.9 ± 0.7%

## O=c1c(O)c(-c2ccc(O)c(O)c2)oc2cc(O)cc(O)c12 [Quercetin]
  inhibition at 1000 µg/mL: 84.5 ± 0.6%

## COc1cc2ccc(=O)oc2cc1O [Scopoletin]
  inhibition at 1000 µg/mL: 34.5 ± 0.4%
